Measured values as given in patent publication US20050080122A1, “Anti-viral compounds” (priority 2002, published 2005).

Tests used:
[1] = system: Enterovirus; experiment: Antiviral assay: virus yield reduction measured by plaque assay in infected cells; assay type: cell-based
Excerpt: (§1) Representative viruses of the Rhinovirus and Enterovirus genera were chosen for study: Rhinovirus 2 (RV2), Rhinovirus 14 (RV14), Coxsackievirus […] (CVB3) and Echovirus 11 (EV11). Each virus is propogated in two different cell lines as follows: RV2 and RV14 in HEL and HeLa cells, CVB3 in BS-C-1 and HeLa (human cervical adenocarcinoma) cells, EV11 in BS-C-1 (African green monkey kidney, primary) and HEL (human embryonic lung, primary) cells. Propogation of virus strains in two different cell lines is performed as different cell types may utilize different ion transport pathways.
(§2) Antiviral assays are determined as follows. Monolayers of HeLa T cells (human cervical adenocarcinoma) in 12-well plates are infected with 0.01 plaque forming units per cell of Rhinovirus 2 in minimum essential medium with Earle's salts (MEM) supplemented with 1% v/v fetal bovine serum (FBS) or mock-infected with medium for 1 hour. […] Cells are further incubated for 70 hours at 34° C., until extensive cell death is observed in the no drug control. Cells plus culture supernatants are freeze-thawed and virus titre in each sample is determined by plaque assay.

[2] = system: HeLa cells; experiment: Cytotoxicity on uninfected cells, Alamar Blue metabolic activity; conditions: uninfected HeLa T cells, 70 hours at 34° C.
[3] = system: Rhinovirus; experiment: Antiviral assay: virus yield reduction measured by plaque assay in infected cells; assay type: cell-based
Excerpt: as §1, §2

Row | Compound | effectiveness against Enterovirus [1] | toxicity to HeLa cells compared to the inhibition of virus production [2] | effectiveness against Rhinovirus [3]
1 | N=C(N)NC(=O)c1nc(Cl)c(N)nc1N [Amiloride] | particularly effective | – | –
2 | N=C(NCc1ccccc1)NC(=O)c1nc(Cl)c(N)nc1N [Benzamil] | particularly effective | – | –
3 | CCN(c1nc(N)c(C(=O)NC(=N)N)nc1Cl)C(C)C [EIPA, 5-(N-ethyl-N-isopropyl)amiloride] | – | far less toxic | particularly effective
4 | COc1ccc(CCN(C)CCCC(C#N)(c2ccc(OC)c(OC)c2)C(C)C)cc1OC (centres unmarked) [Verapamil] | – | – | particularly effective
